Experimental data from patent US12590091B2, “1H-pyrrolo[3,2-C]pyridine and 1H-pyrrolo[2,3-C]pyridine derivatives as TLR9 inhibitors for the treatment of fibrosis” (BRISTOL-MYERS SQUIBB COMPANY, priority 2020, dated 2026).
pIC50: −log10 of the molar value.

Target: T1, human TLR9 (Homo sapiens, UniProt Q9NR96)
T1 construct: host or cells: HEK-Blue cells
T1 sequence (Q9NR96 26-1032): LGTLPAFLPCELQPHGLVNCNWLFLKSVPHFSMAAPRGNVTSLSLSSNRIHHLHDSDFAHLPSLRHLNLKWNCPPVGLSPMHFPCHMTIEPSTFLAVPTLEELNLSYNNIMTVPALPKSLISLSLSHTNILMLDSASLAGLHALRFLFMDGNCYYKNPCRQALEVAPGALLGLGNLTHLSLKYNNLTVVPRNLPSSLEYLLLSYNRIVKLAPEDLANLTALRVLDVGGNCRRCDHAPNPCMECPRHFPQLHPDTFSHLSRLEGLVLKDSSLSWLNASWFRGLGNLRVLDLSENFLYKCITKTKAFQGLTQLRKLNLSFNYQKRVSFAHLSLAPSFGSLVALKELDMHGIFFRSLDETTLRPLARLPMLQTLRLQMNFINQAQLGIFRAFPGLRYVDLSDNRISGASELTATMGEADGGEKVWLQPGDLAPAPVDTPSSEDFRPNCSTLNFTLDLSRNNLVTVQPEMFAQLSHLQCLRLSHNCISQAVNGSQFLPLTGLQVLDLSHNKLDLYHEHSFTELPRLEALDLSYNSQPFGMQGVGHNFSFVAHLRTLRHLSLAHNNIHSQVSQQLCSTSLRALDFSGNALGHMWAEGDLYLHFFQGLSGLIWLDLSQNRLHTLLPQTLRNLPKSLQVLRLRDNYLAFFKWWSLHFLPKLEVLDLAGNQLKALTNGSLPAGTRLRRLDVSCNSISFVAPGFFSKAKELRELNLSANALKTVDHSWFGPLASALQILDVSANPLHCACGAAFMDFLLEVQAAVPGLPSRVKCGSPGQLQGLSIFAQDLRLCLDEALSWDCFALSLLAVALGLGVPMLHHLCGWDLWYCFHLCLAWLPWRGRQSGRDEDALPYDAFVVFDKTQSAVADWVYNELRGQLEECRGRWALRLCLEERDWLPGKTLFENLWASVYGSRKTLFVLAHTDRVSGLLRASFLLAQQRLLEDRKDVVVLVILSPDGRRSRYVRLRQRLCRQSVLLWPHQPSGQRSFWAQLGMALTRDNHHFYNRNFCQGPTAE
Experiment: TLR9 inhibition reporter assay (HEK-Blue cells, SEAP reporter)
Type: cell-based
Conditions: HEK-Blue cells overexpressing human TLR9, stimulated with ODN2006 5 nM, 22 hour incubation
Summary of the method: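 HEK-Blue cells overexpressing human TLR9 (25,000 cells/well), NF-κB/AP-1-driven SEAP reporter. Compounds at 0.05 nM–50 μM final, 22 h at 37 °C, 5% CO2 with agonist. SEAP detected with HEK-Blue Detection medium; % inhibition versus agonist plus DMSO and known-inhibitor wells.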

| Structure (SMILES) | pIC50 |
| --- | --- |
| Cc1nc(-c2ccc(CN3CCN(CCCO)CC3)cc2)cc2c1cc(-c1ccc(S(C)(=O)=O)cc1)n2C [Example 58, 3-(4-(4-(1,4-dimethyl-2-(4-(methylsulfonyl)phenyl)-1H-pyrrolo[3,2-c]pyridin-6-yl)benzyl)piperazin-1-yl)propan-1-ol] | 6.97 |
| Cc1nc(-c2ccc(CN3CCC(C)(O)CC3)cc2)cc2c1cc(-c1ccc(S(C)(=O)=O)cc1)n2C [Example 59, 1-(4-(1,4-dimethyl-2-(4-(methylsulfonyl)phenyl)-1H-pyrrolo[3,2-c]pyridin-6-yl)benzyl)-4-methylpiperidin-4-ol] | 6.11 |
| Cc1nc(-c2ccc(CN3CCN(CCC(C)(C)O)CC3)cc2)cc2c1cc(-c1ccc(S(C)(=O)=O)cc1)n2C [Example 60, 4-(4-(4-(1,4-dimethyl-2-(4-(methylsulfonyl)phenyl)-1H-pyrrolo[3,2-c]pyridin-6-yl)benzyl)piperazin-1-yl)-2-methylbutan-2-ol] | 7.19 |
| Cc1nc(-c2ccc(CN3C[C@@H]4CC[C@H]3CN4CCC(C)(C)O)cc2)cc2c1cc(-c1ccc(S(C)(=O)=O)cc1)n2C [Example 61, 4-((1S,4S)-5-(4-(1,4-dimethyl-2-(4-(methylsulfonyl)phenyl)-1H-pyrrolo[3,2-c]pyridin-6-yl)benzyl)-2,5-diazabicyclo[2.2.2]octan-2-yl)-2-methylbutan-2-ol] | 6.96 |
| Cc1nc(-c2ccc(N3CCN(CCO)CC3)c(F)c2)cc2c1cc(-c1ccc(S(C)(=O)=O)cc1)n2C [Example 69, 2-(4-(4-(1,4-dimethyl-2-(4-(methylsulfonyl)phenyl)-1H-pyrrolo[3,2-c]pyridin-6-yl)-2-fluorophenyl)piperazin-1-yl)ethan-1-ol] | 7.11 |
| Cc1nc(-c2ccc(N3CCN(C4CCOC4)CC3)c(F)c2)cc2c1cc(-c1ccc(S(C)(=O)=O)cc1)n2C (stereo not drawn) [Example 70, 6-(3-fluoro-4-(4-(tetrahydrofuran-3-yl)piperazin-1-yl)phenyl)-1,4-dimethyl-2-(4-(methylsulfonyl)phenyl)-1H-pyrrolo[3,2-c]pyridine] | 6.59 |
| COCCN1C2CCC1CN(c1ccc(-c3cc4c(cc(-c5ccc(S(C)(=O)=O)cc5)n4C)c(C)n3)cc1)C2 [Example 74, 6-(4-(8-(2-methoxyethyl)-3,8-diazabicyclo[3.2.1]octan-3-yl)phenyl)-1,4-dimethyl-2-(4-(methylsulfonyl)phenyl)-1H-pyrrolo[3,2-c]pyridine] | 7.24 |
| Cc1nc(-c2ccc(N3CC4CCC(C3)N4CCCO)cc2)cc2c1cc(-c1ccc(S(C)(=O)=O)cc1)n2C [Example 76, 3-(3-(4-(1,4-dimethyl-2-(4-(methylsulfonyl)phenyl)-1H-pyrrolo[3,2-c]pyridin-6-yl)phenyl)-3,8-diazabicyclo[3.2.1]octan-8-yl)propan-1-ol] | 7.28 |
| Cc1nc(-c2ccc(N3CC4CCC(C3)N4CCCO)c(F)c2)cc2c1cc(-c1ccc(S(C)(=O)=O)cc1)n2C [Example 77, 3-(3-(4-(1,4-dimethyl-2-(4-(methylsulfonyl)phenyl)-1H-pyrrolo[3,2-c]pyridin-6-yl)-2-fluorophenyl)-3,8-diazabicyclo[3.2.1]octan-8-yl)propan-1-ol] | 6.90 |
| Cc1nc(-c2ccc(N3CCN(CC(C)C)CC3)c(F)c2F)cc2c1cc(-c1ccc(S(C)(=O)=O)cc1)n2C [Example 82, 6-(2,3-difluoro-4-(4-isobutylpiperazin-1-yl)phenyl)-1,4-dimethyl-2-(4-(methylsulfonyl)phenyl)-1H-pyrrolo[3,2-c]pyridine] | 6.48 |
| Cc1nc(-c2ccc(C3(O)CCN(C(C)C)CC3)cc2)cc2c1cc(-c1ccc(S(C)(=O)=O)cc1)n2C [Example 88, 4-(4-(1,4-dimethyl-2-(4-(methylsulfonyl)phenyl)-1H-pyrrolo[3,2-c]pyridin-6-yl)phenyl)-1-isopropylpiperidin-4-ol] | 6.94 |
| Cc1nc(-c2ccc(C3(O)CC4CCC(C3)N4C(C)C)c(F)c2)cc2c1cc(-c1ccc(S(C)(=O)=O)cc1)n2C [Example 100, (1R,3r,5S)-3-(4-(1,4-dimethyl-2-(4-(methylsulfonyl)phenyl)-1H-pyrrolo[3,2-c]pyridin-6-yl)-2-fluorophenyl)-8-isopropyl-8-azabicyclo[3.2.1]octan-3-ol] | 6.74 |
| CCN1C2CCC1CC(O)(c1ccc(-c3cc4c(cc(-c5ccc(S(C)(=O)=O)cc5)n4C)c(C)n3)cc1F)C2 [Example 101, (1R,3r,5S)-3-(4-(1,4-dimethyl-2-(4-(methylsulfonyl)phenyl)-1H-pyrrolo[3,2-c]pyridin-6-yl)-2-fluorophenyl)-8-ethyl-8-azabicyclo[3.2.1]octan-3-ol] | 6.94 |
| Cc1nc(-c2ccc(C3(O)CC4CCC(C3)N4C)c(F)c2)cc2c1cc(-c1ccc(S(C)(=O)=O)cc1)n2C [Example 102, (1R,3r,5S)-3-(4-(1,4-dimethyl-2-(4-(methylsulfonyl)phenyl)-1H-pyrrolo[3,2-c]pyridin-6-yl)-2-fluorophenyl)-8-methyl-8-azabicyclo[3.2.1]octan-3-ol] | 6.90 |

The next lines start with the values.

| pIC50 | Structure (SMILES) |
| --- | --- |
| 7.38 | CC(C)N1CCN(c2ccc(-c3cc4c(cn3)cc(-c3ccc(S(C)(=O)=O)cc3)n4C)cc2)CC1 [Example 54, 6-(4-(4-isopropylpiperazin-1-yl)phenyl)-1-methyl-2-(4-(methylsulfonyl)phenyl)-1H-pyrrolo[3,2-c]pyridine] |
| 5.55 | Cc1nc(-c2ccc(N3CCN(CCCO)CC3)c(F)c2F)cc2c1cc(-c1ccc(S(C)(=O)=O)cc1)n2C [Example 55, 3-(4-(4-(1,4-dimethyl-2-(4-(methylsulfonyl)phenyl)-1H-pyrrolo[3,2-c]pyridin-6-yl)-2,3-difluorophenyl)piperazin-1-yl)propan-1-ol] |
| 6.57 | Cc1nc(-c2cc(F)c(N3CCN(CCCO)CC3)cc2F)cc2c1cc(-c1ccc(S(C)(=O)=O)cc1)n2C [Example 56, 3-(4-(4-(1,4-dimethyl-2-(4-(methylsulfonyl)phenyl)-1H-pyrrolo[3,2-c]pyridin-6-yl)-2,5-difluorophenyl)piperazin-1-yl)propan-1-ol] |
| 7.34 | Cc1nc(-c2ccc(CN3CCN(CC(C)C)CC3)cc2)cc2c1cc(-c1ccc(S(C)(=O)=O)cc1)n2C [Example 57, 6-(4-((4-isobutylpiperazin-1-yl)methyl)phenyl)-1,4-dimethyl-2-(4-(methylsulfonyl)phenyl)-1H-pyrrolo[3,2-c]pyridine] |
| 7.12 | COCCN1C2CCC1CN(c1ccc(-c3cc4c(cc(-c5ccc(S(C)(=O)=O)cc5)n4C)c(C)n3)cc1F)C2 [Example 75, 6-(3-fluoro-4-(8-(2-methoxyethyl)-3,8-diazabicyclo[3.2.1]octan-3-yl)phenyl)-1,4-dimethyl-2-(4-(methylsulfonyl)phenyl)-1H-pyrrolo[3,2-c]pyridine] |
| 6.83 | COCCN1C2CCC1CN(c1cc(F)c(-c3cc4c(cc(-c5ccc(S(C)(=O)=O)cc5)n4C)c(C)n3)cc1F)C2 [Example 78, 6-(2,5-difluoro-4-(8-(2-methoxyethyl)-3,8-diazabicyclo[3.2.1]octan-3-yl)phenyl)-1,4-dimethyl-2-(4-(methylsulfonyl)phenyl)-1H-pyrrolo[3,2-c]pyridine] |
| 7.46 | Cc1nc(-c2cc(F)c(N3CC4CCC(C3)N4CCCO)cc2F)cc2c1cc(-c1ccc(S(C)(=O)=O)cc1)n2C [Example 79, 3-(3-(4-(1,4-dimethyl-2-(4-(methylsulfonyl)phenyl)-1H-pyrrolo[3,2-c]pyridin-6-yl)-2,5-difluorophenyl)-3,8-diazabicyclo[3.2.1]octan-8-yl) propan-1-ol] |
| 7.14 | Cc1nc(-c2ccc(C3(O)CCN(C4CC4)CC3)cc2)cc2c1cc(-c1ccc(S(C)(=O)=O)cc1)n2C [Example 87, 1-cyclopropyl-4-(4-(1,4-dimethyl-2-(4-(methylsulfonyl)phenyl)-1H-pyrrolo[3,2-c]pyridin-6-yl)phenyl)piperidin-4-ol] |
| 6.60 | Cc1nc(-c2ccc(N3CCN4CCCC4C3)c(F)c2F)cc2c1cc(-c1ccc(S(C)(=O)=O)cc1)n2C (stereo not drawn) [Example 99, 6-(2,3-difluoro-4-(hexahydropyrrolo[1,2-a]pyrazin-2(1H)-yl)phenyl)-1,4-dimethyl-2-(4-(methylsulfonyl)phenyl)-1H-pyrrolo[3,2-c]pyridine] |
| 6.79 | Cc1nc(-c2ccc(C3(O)CCN(C(C)(C)C)CC3)c(F)c2)cc2c1cc(-c1ccc(S(C)(=O)=O)cc1)n2C [Example 104, 1-(tert-butyl)-4-(4-(1,4-dimethyl-2-(4-(methylsulfonyl)phenyl)-1H-pyrrolo[3,2-c]pyridin-6-yl)-2-fluorophenyl)piperidin-4-ol] |
